According to paper PMC12914960, “Repurposing a detrimental antibody epitope as targeted therapeutics for sepsis and rheumatoid arthritis” (Military Medical Research, 2026):
Values joined by “and” are separate entries in the source; they are usually repeats but may differ in a detail not shown here. Equal values may be shown once. Where a SMILES comes first, the peptide text is derived from it.

Experiments:
[1] = tested on: Differentiated human macrophages; assay: Cellular uptake of Alexa Fluor 555-labeled HMGB1 by differentiated macrophages; format: cell-based; conditions: P2-1 10 µg/ml, HMGB1 0.5 µg/ml, 2 h, 37 °C
Procedure: plots and heatmaps were generat ed via ggplot2 and pheatmap packages in R, respectively. Genes with an adjusted P -value < 0.05 and a |log2 fold change| > 1 were considered differentially expressed.
Human macrophage differentiation and treatment
Human PBMCs were differentiated into macrophages by culturing in human macrophage colony-stimulating factor (M-CSF, 20 ng/ml) for 5 – 6 d. Differentiated macrophages were maintained in Dulbecco’s modified Eagle’s medium supplemented with 1% penicillin/streptomycin and 10% human serum. […]
Cell viability was assessed via the tryp an blue excl usion and lactat e dehyd ro genase (LDH) release method as previously described . For trypan blue exclusion, random phase-contr ast images were captur ed , and the percentage of nonviable, trypan blue-stained cells was calculated. LDH release in the culture medium was quantified with an LDH Ass ay Kit (Cat. #L7572, Pointe Scientific Inc., Canton, MI, USA) according to the manufacturer ’s instructions. Optical density was measured at 340 nm, and LDH content was expressed as a per centag e of maximal release in the presence of 2% Triton X-100. […]
#H-1200, Vector Laborat ories, Inc., Newark, CA, USA) for nuclear counterstaining. Endocytic uptake of Alexa Fluor 555- labeled HMGB1 (red) was visualized via the Olympus IX51 inverted fluorescence & phase contrast tissue culture microscope. […]

[2] = tested on: pCTS-L secretion from human PBMCs; assay: HMGB1-induced pCTS-L secretion by PBMCs, Western blotting; format: cell-based; conditions: 16 h; for pCTS-L release: densitometry
Procedure: Human blood was purchased from the New York Blood Center (Long Island City, NY, USA), and PBMCs were isolated via density gradient centrifugation through Ficoll (Ficoll-Paque PLUS) as previously described. PBMCs were cultured in RPMI-1640 supplemented with 10% human serum, 2 mmol/L L-glutamine, 100 U/ml penicillin, and 100 µg/ml streptomycin (all from Invitrogen, Carlsbad, CA, USA). For experiments, PBMCs were stimulated with recombinant HMGB1 (0.5 or 2.0 µg/ml) for 16 h, either alone or in combination with P2-1 at 5.0 or 10.0 µg/ml. Cell-free supernatants were collected for analysis of cytokine/chemokine levels via cytokine antibody arrays, or pCTS-L levels via Western blotting analysis as previously described.
Cell-conditioned medium from human PBMC cultures was collected and concentrated via Amicon Ultra Centrifugal Filters with a 10 kD molecular weight cutoff (Cat. #UFC801096, MilliporeSigma, Burlington, MA, USA). Equal volumes of conditioned medium, representing equivalent numbers of cells, were resolved on sodium dodecyl sulfate-polyacrylamide gels and transferred to polyvinylidene difluoride membranes. After being blocked with 5% nonfat milk in Tris-buffered saline with 0.1% Tween 20, the membranes were probed with a homemade primary monoclonal antibody against pCTS-L (e.g., mAb2, 1:1000) overnight as previously described. After washing, the membranes were incubated with a horseradish peroxidase-conjugated secondary antibody. The protein bands were visualized using enhanced chemiluminescence substrate (Pierce) and detected via a chemiluminescence imaging system (e.g., Bio-Rad ChemiDoc MP). The relative levels of specific proteins were determined using the UN-SCAN-IT gel analysis software version 7.1 (Silk Scientific Inc., Orem, UT, USA) and expressed in arbitrary units (AU). The experiments were performed in quadruplicate (n = 4 biological replicates).
Fig. S9 Full Western blotting analysis of the effect of P2- 1 on HMGB1- induced pCTS-L release in human PBMCs. Human PBMCs were stimulated with HMGB1 (0.5 µ g/ml) in th e abs ence or p resen ce of P2-1 (5.0 or 10.0 µg/ml) for 16 h, and the levels of pCTS-L in the cell-conditioned medium were determined by Western blotting, with sample loading normalized by volume of culture medium conditioned by an equivalent number of cells. Representative Western blotting images showing the dose-dependent […]
human PBMCs. HMGB1 high mobility group box 1, pCTS -L procathepisn L , PBMCs PBMCs peripheral […]
(1 picture or pasted object on this page, not shown here)

Water solubility = format: physicochemical; conditions: qualitative, text in Fig. 1d

CCCC[C@H](NC(=O)[C@H](Cc1c[nH]cn1)NC(=O)[C@@H](NC(=O)[C@H](CCCCN)NC(=O)[C@@H](N)[C@@H](C)O)C(C)C)C(=O)N[C@@H](CCCCN)C(=O)N[C@@H](CO)C(=O)N[C@@H](Cc1ccccc1)C(=O)N[C@@H](CC(C)C)C(=O)N[C@@H](C)C(=O)N[C@@H](Cc1ccccc1)C(=O)N[C@@H](CCC(N)=O)C(=O)N[C@H](C(=O)N[C@@H](CCCCN)C(=O)N[C@H](C(=O)O)[C@@H](C)O)[C@@H](C)O [P2-1] (HELM PEPTIDE1{T.K.V.H.[Nle].K.S.F.L.A.F.Q.T.K.T}$$$$V2.0; N-terminus and C-terminus assumed)
HMGB1 cellular uptake, in words [1]: markedly reduced Alexa Fluor 555-HMGB1 uptake
pCTS-L release ([2]; HMGB1 (0.5) + P2-1 5.0 μg/ml, individual replicates): 1.2 and 4 and 3.2 and 2.1
pCTS-L release ([2]; HMGB1 (0.5) + P2-1 10.0 μg/ml, individual replicates): 0.4 and 0.7 and 1.9 and 1.1
pCTS-L release ([2]; HMGB1 (2.0) + P2-1 5.0 μg/ml, single value): 4.8
pCTS-L release ([2]; HMGB1 (2.0) + P2-1 10.0 μg/ml, single value): 1.6
HMGB1-induced pCTS-L secretion, in words ([2]; P2-1 5.0 or 10.0 µg/ml): striking and dose-dependent suppression of HMGB1-induced pCTS-L secretion
Water solubility (Water solubility): Good water solubility
